Data reported in ChEMBL document CHEMBL3217644, “Repairing faulty genes by aminoglycosides: Identification of new pharmacophore with enhanced suppression of disease-causing nonsense mutations” (Medchemcomm, 2011).
Converted amounts (≈) assume the structure as drawn. Where a name gives a salt, the structure may show the parent alone. The source made the active and inactive calls. The calls are words filed in the database; no cut-off is given here.

Legend:
Ribosome [1] = assay: Inhibition of ribosome-mediated translation in prokaryotic system
Bacillus spizizenii = assay: Antibacterial activity against Bacillus subtilis ATCC 6633 by double microdilution method; assay type: functional
[2] = (§1) Cytotoxicity against HFF; assay type: cell-based; details: human, HFF cells; read-out: LC50 (the source's name)
[3] = target: T1, 80S Ribosome (Homo sapiens) (UniProt P08865+P42677+P62753+P15880+P23396+P61247+P62701+P22090+P46782+P62081+P62241+P46781+P46783+P62280+P25398+P62277+P62263+P62841+P62244+P62249+P08708+P62269+P39019+P60866+P63220+P62266+P62847+P62851+P62854+P62979+P62857+P62273+P62861+P39023+P36578+P46777+Q02878+P18124+P62424+P62917+P32969+P27635+P62906+P62913+P30050+P26373+P40429+P50914+P61313+P18621+Q07020+Q02543+P84098+P46778+P35268+P62829+P62750+P83731+P61254+P61353+P46776+P46779+P47914+P62888+P62899+P62910+P49207+P42766+P18077+Q9Y3U8+P83881+P61927+P61513+P63173+P62891+P62945+P05388+P05386); assay: Induction of ribosome-mediated readthrough activity in Q70X-transfected HEK293 cells assessed as suppression of Q70X mutation after 16 hrs by dual luciferase reporter gene assay; assay type: cell-based
[4] = target: T1, 80S Ribosome (Homo sapiens); assay: Induction of ribosome-mediated readthrough activity in R245X-transfected HEK293 cells assessed as suppression of R245X mutation after 16 hrs by dual luciferase reporter gene assay; assay type: cell-based
Ribosome [5] = assay: Induction of ribosome-mediated readthrough activity in rabbit reticulocyte lysate assessed as suppression of G542X mutation after 90 mins by dual luciferase reporter gene assay; details: Oryctolagus cuniculus
Ribosome [6] = assay: Induction of ribosome-mediated readthrough activity in rabbit reticulocyte lysate assessed as suppression of R245X mutation after 90 mins by dual luciferase reporter gene assay; details: Oryctolagus cuniculus
Escherichia coli = assay: Antibacterial activity against Escherichia coli R477/100 by double microdilution method; assay type: functional
Ribosome [7] = assay: Induction of ribosome-mediated readthrough activity in rabbit reticulocyte lysate assessed as suppression of R3381X mutation after 90 mins by dual luciferase reporter gene assay; details: Oryctolagus cuniculus
[8] = target: T1, 80S Ribosome (Homo sapiens); assay: Induction of ribosome-mediated readthrough activity in W1282X-transfected HEK293 cells assessed as suppression of W1282X mutation after 16 hrs by dual luciferase reporter gene assay; assay type: cell-based
[9] = target: T1, 80S Ribosome (Homo sapiens); assay: Induction of ribosome-mediated readthrough activity in R3X-transfected HEK293 cells assessed as suppression of R3X mutation after 16 hrs by dual luciferase reporter gene assay; assay type: cell-based
[10] = Cytotoxicity against HEK293 cells; assay type: cell-based; details: human, read-out: LC50 (the source's name)
Ribosome [11] = assay: Induction of ribosome-mediated readthrough activity in rabbit reticulocyte lysate assessed as suppression of W1282X mutation after 90 mins by dual luciferase reporter gene assay; details: Oryctolagus cuniculus
HFF = assay: as §1; assay type: cell-based; details: human, hff; read-out: LC50 (the source's name)
Ribosome [12] = assay: Induction of ribosome-mediated readthrough activity in rabbit reticulocyte lysate assessed as suppression of R3X mutation after 90 mins by dual luciferase reporter gene assay; details: Oryctolagus cuniculus
Ribosome [13] = assay: Induction of ribosome-mediated readthrough activity in rabbit reticulocyte lysate assessed as suppression of Q70X mutation after 90 mins by dual luciferase reporter gene assay; details: Oryctolagus cuniculus

Compound | IC50 (Ribosome [1]) | MIC (Bacillus spizizenii) | CC50 [2] | Activity [3] | Activity [4] | Activity (Ribosome [5]) | Activity (Ribosome [6]) | MIC (Escherichia coli) | Activity (Ribosome [7]) | Activity [8] | Activity [9] | CC50 [10] | Activity (Ribosome [11]) | CC50 (HFF) | Activity (Ribosome [12]) | Activity (Ribosome [13])
NC[C@H]1O[C@@H](O[C@@H]2[C@@H](O)[C@H](N)C[C@H](N)[C@H]2O[C@H]2O[C@H](CO)[C@@H](O)[C@H](O)[C@H]2N)[C@H](O)[C@@H]1O | 460 nM | 100 µM (≈ 45.4 µg/mL) | 21.8 mM |  |  |  |  |  |  |  |  |  |  |  |  | 
C[C@H](N)[C@H]1O[C@@H](O[C@@H]2[C@@H](O)[C@H](NC(=O)[C@@H](O)CCN)C[C@H](N)[C@H]2O[C@H]2O[C@H](CO)[C@@H](O)[C@H](O)[C@H]2N)[C@H](O)[C@@H]1O | 2270 nM | 33 µM (≈ 18.8 µg/mL) | 8.1 mM | Active | Active | Active | Active | 1070 µM (≈ 608 µg/mL) | Active | Active | Active | 10.1 mM | Active |  |  | 
GENTAMICIN SULFATE [listing 1 of 2 here] | 28 nM |  |  |  |  |  |  |  |  |  |  |  |  | 3.2 mM |  | 
GENTAMICIN SULFATE [listing 2 of 2 here] |  | < 0.75 µM |  | Active | Active | Active | Active |  | Active | Active | Active |  | Active |  | Active | Active
C[C@H](N)[C@H]1O[C@@H](O[C@@H]2[C@@H](O)[C@H](N)C[C@H](N)[C@H]2O[C@H]2O[C@H](CO)[C@@H](O)[C@H](O)[C@H]2N)[C@H](O)[C@@H]1O | 1960 nM | 83 µM (≈ 38.9 µg/mL) | 21.8 mM |  |  | Active | Active | 2660 µM (≈ 1250 µg/mL) | Active |  |  | 23.5 mM | Active |  | Active | Active
NC[C@@H]1O[C@H](O[C@H]2[C@@H](O)[C@H](O[C@@H]3[C@@H](O)[C@H](N)C[C@H](N)[C@H]3O[C@H]3O[C@H](CO)[C@@H](O)[C@H](O)[C@H]3N)O[C@@H]2CO)[C@H](N)[C@@H](O)[C@@H]1O [PAROMOMYCIN SULFATE] | 51 nM | 1.2 µM | 3.1 mM |  |  |  |  |  |  |  |  | 4.1 mM |  |  |  | 
C[C@@H](N)[C@H]1O[C@@H](O[C@@H]2[C@@H](O)[C@H](N)C[C@H](N)[C@H]2O[C@H]2O[C@H](CO)[C@@H](O)[C@H](O)[C@H]2N)[C@H](O)[C@@H]1O | 2130 nM | 78 µM (≈ 36.5 µg/mL) | 20.1 mM |  |  | Active | Active | 4990 µM (≈ 2340 µg/mL) | Active |  |  | 19.8 mM | Active |  | Active | Active
NCC[C@H](O)C(=O)N[C@@H]1C[C@H](N)[C@@H](O[C@H]2O[C@H](CO)[C@@H](O)[C@H](O)[C@H]2N)[C@H](O[C@@H]2O[C@H](CN)[C@@H](O)[C@H]2O)[C@H]1O | 160 nM | 70 µM (≈ 38.9 µg/mL) | 7.8 mM | Active | Active | Active | Active |  | Active | Active | Active |  | Active |  |  | 
C[C@@H](N)[C@H]1O[C@@H](O[C@@H]2[C@@H](O)[C@H](NC(=O)[C@@H](O)CCN)C[C@H](N)[C@H]2O[C@H]2O[C@H](CO)[C@@H](O)[C@H](O)[C@H]2N)[C@H](O)[C@@H]1O | 811 nM | 33 µM (≈ 18.8 µg/mL) | 19.3 mM | Active | Active | Active | Active | 1060 µM (≈ 602 µg/mL) | Active | Active | Active | 13.9 mM | Active |  |  | 
